Laboratory results published in patent US20250082612A1, “SREBP-1 INHIBITOR AND PHARMACEUTICAL COMPOSITION FOR TREATING […]” (Jichi Medical University, priority 2021, published 2025).

Assays:
H4IIEC3 cells = assay: Triglyceride concentration in culture solution of H4IIEC3 hepatocytes; format: cell-based, rat; details: 2 μM in culture medium; 24 hours; relative to DMSO group
Method: Specifically, first, H4IIEC3 cells (1×10^5 cells/well) seeded in advance in a 48-well plate, which are a cell line of rat hepatocytes, were cultured for 1 day. Next, culture medium exchange was carried out so that a high glucose DMEM (serum-free) containing each compound (concentration in culture medium: 2 μM) or DMSO as a control was 200 μL/well, and then the cells were incubated for 24 hours. Next, the triglyceride concentration in the culture solution was measured using a Triglyceride E-Test WAKO (FUJIFILM Corporation). In FIG. 7A to FIG. 7F, the triglyceride concentration in each compound addition group was indicated as a relative percentage in a case where the triglyceride concentration in the DMSO addition group was set to 100%.

human SREBP-1c = biological target: T1, human SREBP-1c (Homo sapiens, UniProt P36956); assay: Gal4-SREBP-1c luciferase reporter assay in HepG2 stable expression strain; format: cell-based; details: EPA 100 or 300 μM, OA 300 μM, Cho 100 μM, 25HCho 30 μM in culture medium; 24 hours; vs DMSO
T1 construct: expressed in transfected cells
Description: A pcDNA3.1 (+)-Hyg vector (manufactured by Thermo Fisher Scientific, Inc. under the brand of Invitrogen) was inserted with DNA fragments of a firefly luciferase reporter cloned from a pGL3-Basic vector (manufactured by Promega Corporation), a pSV40-Renilla luciferase reporter cloned from a pRL-SV40 vector (manufactured by Promega Corporation), and a human SREBP-1c cloned from a pTK-HSV-hSREBP-1c, whereby a vector having a structure shown in FIG. 1 was constructed. The base sequence of the vector is set forth in SEQ ID NO: 2. In FIG. 1, Gal4-BP1 is a human SREBP-1c that is obtained by fusing sequences of the Gal4-DNA binding domain and the minimal VP16-AD to the N-terminal side. 17 m8 is a DNA sequence to which the Gal4-DNA binding domain binds. CTCF is a DNA sequence that acts as an insulator, which blocks the action of transcription factors.
HepG2 cells, which are a cell line derived from human liver cancer, were cultured in advance to a confluency of 10% confluent in Dulbecco's Modified Eagle's Medium (DMEM) (containing 25 mM glucose, 100 units/mL penicillin, […] streptomycin sulfate, and 10 v/v % fetal bovine serum (FBS)) and then transfected with the vector obtained in (1) described above, by using a Lipofectamine 3000 transfection reagent (manufactured by Thermo Fisher Scientific, Inc. under the brand of Invitrogen), 5 whereby the vector was inserted into the genome. […] Next, a Reporter lysis buffer (Promega Corporation) was added to lyse the cells, and luciferase activity was measured with a luminometer.
Next, each candidate compound (concentration in culture medium: 2 or 5 μM) was added to the cell line (2×10^4 cells/well) seeded in a plurality of 384-well plates, which had been constructed in (2) described above, so that one kind of each compound was added to one well, and incubation was carried out for 24 hours. […] Next, Steady-Glo (a mixture of luciferin and a Lysis buffer) was added thereto, and then luciferase activity was measured with a luminometer. […]

human SREBP-2 = biological target: T2, human SREBP-2 (Homo sapiens, UniProt Q12772); assay: Gal4-SREBP-2 luciferase reporter assay in HepG2 stable expression strain; format: cell-based; details: EPA 100 or 300 μM, 25HCho 30 μM in culture medium; 24 hours; vs DMSO
T2 construct: expressed in transfected cells
Description: In order to exclude compounds such as cholesterol and 25-hydroxycholesterol, which have an inhibitory action on both SREBP-1 and SREBP-2, first, a vector having the structure shown in FIG. 3 was constructed using the same method as in “1.” described above, except that a DNA fragment of human SREBP-2 cloned from pTK-HSVhSREBP-2 was used instead of the DNA fragment of human SREBP-1c. The base sequence of the vector is set forth in SEQ ID NO: 3. In FIG. 3, Gal4-BP2 is a human SREBP-2 that is obtained by fusing sequences of the Gal4-DNA binding domain and the minimal VP16-AD to the N-terminal side.
a stable expression strain of HepG2, which stably expressed firefly luciferase, was established using the same method as in “1. (2)” described above, except that the vector obtained in “2. (1)” described above was used. […] Next, a Reporter lysis buffer (Promega Corporation) was added to lyse the cells, and luciferase activity was measured with a luminometer. […]
Among the 39 kinds of compounds, 23 kinds of compounds were selected by searching the PAINS database (https://www.rdkit.org/docs/source/rdkit. Chem.rdfiltercatalog.html) and excluding, from targets of interest, compounds for which non-specific action had been reported. […] It is noted that the SREBP-1 inhibition rate and the SREBP-2 inhibition rate in the reporter assay were calculated using the following method. […]

T1 sequence (P36956 with tags, fused parts or gaps isoform P36956-4 limits assumed): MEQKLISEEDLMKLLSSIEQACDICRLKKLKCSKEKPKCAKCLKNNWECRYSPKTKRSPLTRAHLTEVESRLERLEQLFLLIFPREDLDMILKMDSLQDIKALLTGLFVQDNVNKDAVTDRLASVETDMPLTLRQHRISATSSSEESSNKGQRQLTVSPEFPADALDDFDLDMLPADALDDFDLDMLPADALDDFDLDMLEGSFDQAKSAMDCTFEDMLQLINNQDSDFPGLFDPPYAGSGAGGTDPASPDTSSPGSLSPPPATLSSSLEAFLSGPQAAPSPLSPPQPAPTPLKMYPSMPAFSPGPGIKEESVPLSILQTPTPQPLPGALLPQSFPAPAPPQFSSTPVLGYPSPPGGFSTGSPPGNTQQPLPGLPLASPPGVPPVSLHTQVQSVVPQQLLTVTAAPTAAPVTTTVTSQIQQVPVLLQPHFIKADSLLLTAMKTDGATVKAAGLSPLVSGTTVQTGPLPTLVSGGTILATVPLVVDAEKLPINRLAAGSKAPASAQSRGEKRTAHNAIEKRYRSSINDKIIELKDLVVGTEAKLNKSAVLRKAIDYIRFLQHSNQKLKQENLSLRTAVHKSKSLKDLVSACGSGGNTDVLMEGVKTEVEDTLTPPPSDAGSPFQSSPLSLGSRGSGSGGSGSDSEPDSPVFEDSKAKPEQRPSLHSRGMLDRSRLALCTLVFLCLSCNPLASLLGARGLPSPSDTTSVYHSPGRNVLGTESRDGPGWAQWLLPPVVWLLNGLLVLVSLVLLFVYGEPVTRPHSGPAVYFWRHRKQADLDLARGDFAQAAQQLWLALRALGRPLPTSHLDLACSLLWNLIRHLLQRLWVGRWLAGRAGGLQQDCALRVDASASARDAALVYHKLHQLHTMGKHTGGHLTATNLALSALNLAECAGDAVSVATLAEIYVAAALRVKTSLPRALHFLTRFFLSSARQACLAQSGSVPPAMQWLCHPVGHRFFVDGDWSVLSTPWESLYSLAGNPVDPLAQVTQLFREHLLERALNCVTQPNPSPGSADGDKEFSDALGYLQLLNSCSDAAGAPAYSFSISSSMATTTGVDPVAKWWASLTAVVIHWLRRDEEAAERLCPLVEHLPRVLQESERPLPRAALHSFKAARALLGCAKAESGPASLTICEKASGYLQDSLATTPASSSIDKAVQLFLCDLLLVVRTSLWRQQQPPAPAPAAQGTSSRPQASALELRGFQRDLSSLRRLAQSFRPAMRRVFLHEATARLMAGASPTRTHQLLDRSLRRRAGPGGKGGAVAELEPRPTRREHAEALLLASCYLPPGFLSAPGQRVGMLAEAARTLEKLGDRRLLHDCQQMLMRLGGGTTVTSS
T2 sequence (Q12772 with tags, fused parts or gaps limits assumed): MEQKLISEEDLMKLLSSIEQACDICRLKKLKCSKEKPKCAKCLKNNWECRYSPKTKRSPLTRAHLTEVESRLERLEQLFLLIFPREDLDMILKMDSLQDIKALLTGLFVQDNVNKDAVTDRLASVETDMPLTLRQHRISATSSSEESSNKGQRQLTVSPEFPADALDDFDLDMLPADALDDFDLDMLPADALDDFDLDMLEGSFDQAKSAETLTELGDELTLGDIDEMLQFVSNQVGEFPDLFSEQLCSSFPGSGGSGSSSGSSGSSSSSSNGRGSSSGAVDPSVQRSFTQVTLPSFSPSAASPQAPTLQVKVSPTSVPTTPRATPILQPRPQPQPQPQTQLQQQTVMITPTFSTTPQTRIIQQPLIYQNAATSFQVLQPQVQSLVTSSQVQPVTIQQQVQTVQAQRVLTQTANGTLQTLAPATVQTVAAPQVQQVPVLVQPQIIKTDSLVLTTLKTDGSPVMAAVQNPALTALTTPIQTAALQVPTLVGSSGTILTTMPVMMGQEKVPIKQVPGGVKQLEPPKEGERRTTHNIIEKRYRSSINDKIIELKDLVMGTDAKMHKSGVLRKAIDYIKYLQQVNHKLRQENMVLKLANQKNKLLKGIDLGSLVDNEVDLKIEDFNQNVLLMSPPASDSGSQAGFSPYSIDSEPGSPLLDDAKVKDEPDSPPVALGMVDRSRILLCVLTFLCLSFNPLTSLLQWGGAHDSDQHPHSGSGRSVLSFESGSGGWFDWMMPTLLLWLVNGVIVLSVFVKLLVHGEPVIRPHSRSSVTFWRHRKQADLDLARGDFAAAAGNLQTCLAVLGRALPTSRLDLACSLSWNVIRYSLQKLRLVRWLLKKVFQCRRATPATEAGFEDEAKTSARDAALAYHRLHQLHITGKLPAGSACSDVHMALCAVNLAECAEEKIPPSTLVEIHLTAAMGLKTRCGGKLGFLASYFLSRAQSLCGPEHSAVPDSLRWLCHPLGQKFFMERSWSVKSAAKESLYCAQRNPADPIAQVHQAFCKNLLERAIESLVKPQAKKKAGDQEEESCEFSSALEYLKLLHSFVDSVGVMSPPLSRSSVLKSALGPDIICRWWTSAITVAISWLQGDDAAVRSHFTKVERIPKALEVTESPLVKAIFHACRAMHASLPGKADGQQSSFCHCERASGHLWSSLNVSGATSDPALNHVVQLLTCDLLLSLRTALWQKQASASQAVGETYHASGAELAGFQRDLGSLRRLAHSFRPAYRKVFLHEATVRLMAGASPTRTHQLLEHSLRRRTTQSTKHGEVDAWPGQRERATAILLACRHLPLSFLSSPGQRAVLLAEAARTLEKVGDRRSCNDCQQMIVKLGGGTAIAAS

Row | Structure (SMILES) | triglycerides in culture solution of cultured hepatocytes (FIG. 7A-7F) (H4IIEC3 cells) | luciferase activity (SREBP-1 reporter, FIG. 2) (human SREBP-1c) | luciferase activity (SREBP-2 reporter, FIG. 4) (human SREBP-2)
1 | CCCOc1ccccc1OC(=O)CN1C(=O)COc2ccccc21 [(5)] | reduce triglycerides |  | 
2 | CSc1nn(-c2ccc([N+](=O)[O-])cc2)c(N)c1C(N)=O [(6), 5-amino-3-methylsulfanyl-1-(4-nitrophenyl)pyrazole-4-carboxamide] | reduce triglycerides |  | 
3 | COc1ccc2c(c1)[nH]c1c(C)nccc12 [(16)] | reduce triglycerides |  | 
4 | CC(C)CCC[C@@H](C)[C@H]1CC[C@H]2[C@@H]3CC=C4C[C@@H](O)CC[C@]4(C)[C@H]3CC[C@]12C [Cho, cholesterol] |  | luciferase activity was reduced | 
5 | C[C@H](CCCC(C)(C)O)[C@H]1CC[C@H]2[C@@H]3CC=C4C[C@@H](O)CC[C@]4(C)[C@H]3CC[C@]12C [Compound 25HCho, 25-hydroxycholesterol] |  | luciferase activity was reduced | luciferase activity was reduced
6 | CCCCCCCC/C=C\CCCCCCCC(=O)O [OA, oleic acid] |  | luciferase luminescence was observed | 

Now from value to molecule, other results behind:

Row | triglycerides in culture solution of cultured hepatocytes (FIG. 7A-7F) (H4IIEC3 cells) | Structure (SMILES) | luciferase activity (SREBP-1 reporter, FIG. 2) (human SREBP-1c) | luciferase activity (SREBP-2 reporter, FIG. 4) (human SREBP-2)
7 | reduce triglycerides | C=CCNc1nc(-c2ccc(N3CCCC3=O)cc2)cs1 [(11)] |  | 
8 | reduce triglycerides | CCc1c2c(nc3ccc(O)cc13)-c1cc3c(c(=O)n1C2)COC(=O)[C@]3(O)CC [(22a)] |  | 
